{"source": "patent US11083714B2", "about": "“Selective anti-cancer agent effective for prevention and treatment” (Molecular International Research, Inc., priority 2018, dated 2021)", "key": {"[1]": {"system": "PANC-1 cells", "assay": "Spheroid formation (cancer stem cells)", "format": "cell-based", "description": "FIG. 22. PANC-1 cell suspensions were treated at concentrations of 0 μM (negative control), 2.5 μM, 5.0 μM, and 10.0 μM de-ethylflavopereirine then examined for the presence of spheroids.\nFIG. 23. Primary spheroids from first round were collected and seeded for secondary spheroid formation. Following treatment with concentrations of 0 μM (negative control), 2.5 μM, 5.0 μM, and 10.0 μM de-ethylflavopereirine, suspensions were examined.\nIn vitro, cancer stem cells form spheroids: clusters of cancer cells surrounding a cancer stem cell. Inhibition of spheroid formation is a test for anti-cancer stem cell activity of a compound."}, "[2]": {"system": "MIA PaCa, PANC-1, BxPc, AsPc", "assay": "MTT cell viability, pancreatic cancer cell lines", "format": "cell-based, human", "conditions": "48 hr", "description": "FIG. 8. Dose-response curves for cell viability of human pancreatic cancer cell lines MIA PaCa (squares), PANC-1 (lozenges), BxPc (crosses), and AsPc (triangles) exposed to de-ethylflavopereirine. Cells were cultured in the presence of increasing concentrations of the compound for 48 hr and cell viability was determined by MTT assay. MRC-5 (asterisks) was used as a control.\n(§1) De-ethylflavopereirine was tested for its activity against ovarian, pancreatic, brain, and colon cancer cell lines. […] Cytotoxicity is assayed by reducing a yellow tetrazolium dye, 3-(4,5-dimethylthiazol-2-yl)-2,5-diphenyltetrazolium bromide (MTT), to insoluble purple formazan. The MTT assay is a colorimetric assay for determining the number of viable cells."}, "[3]": {"system": "LnCap", "assay": "Cell Proliferation (anti-cancer), LnCap", "format": "cell-based, human", "description": "(§2) The primary goal of synthesizing de-ethylflavopereirine (compound 13-9-1) was to generate a different compound that still retains the anti-cancer cell activity of flavopereirine (compound 13-7-2). Comparison of the effects of the two compounds on proliferation of a variety of cancer cells confirmed that this goal was achieved. For example, the effect of de-ethylflavopereirine on two human breast cancer cell lines and two human prostate cancer cell lines were analyzed."}, "[4]": {"assay": "Alcohol-induced chronic pancreatitis model", "format": "in vivo", "conditions": "mice given ethanol and compound in the daily diet", "excerpt": "FIG. 29. Effects of de-ethylflavopereirine in a mice model of alcohol-induced chronic pancreatitis. Paraffin sections of the pancreas were stained with hematoxylin and eosin. […] This tissue protection was quantitated with an injury score (FIG. 29B). Ly6G was elevated four-fold in the pancreas of mice given ethanol while the number of neutrophils was not elevated in mice given ethanol and compound 13-9-1 (FIG. 29C).\nDaily administration of ethanol to mice was followed by a binge of ethanol administration, a regimen relevant to human consumption. In the experimental group, de-ethylflavopereirine was included in the daily diet throughout the course of the experiment. There were two control groups: animals that were given no alcohol (negative control) and animals given alcohol without receiving the compound 13-9-1 (positive control). Following 10 days of alcohol treatment, the animals were gavaged with alcohol for 8 hours then euthanized, and their pancreatic tissues were collected. Pancreatic tissue sections were analyzed for histology and isolated RNA was used for quantitative PCR."}, "[5]": {"system": "HT-29 tumors", "assay": "Subcutaneous HT-29 colon cancer xenografts", "format": "in vivo", "conditions": "for toxicity and deaths of tumor-bearing mice: mouse, in vivo; for TUNEL staining of tumor sections: tumors removed after treatment", "description": "FIG. 30. Effect of de-ethylflavopereirine on HT-29 colon cancer tumor volume. Nude mice with subcutaneous xenografts of human HT-29 colon cancer cells were grouped as untreated control (squares), administered compound 13-9-1 (triangles), or administered IFL as conventional chemotherapy regimen (circles). IFL is a combination of irinotecan, fluorouracil, and leucovorin often used for treatment of colorectal cancer. […] Animals were treated for two and a half weeks.\nFIGS. 31 to 33 show TUNEL staining of HT-29 tumors removed from untreated mice (control) in FIG. 31, mice administered de-ethylflavopereirine in FIG. 32, or mice administered IFL in FIG. 33. […] After treatments were concluded, tumors were removed from the animals, fixed, thin sectioned, and stained by the TUNEL method to identify cells undergoing apoptosis. In FIG. 31, the borders of tumors from control animals show intact tissue and the absence of TUNEL staining. […] The color images clearly distinguish the dark purple/brown color of cells undergoing apoptotis from the blue color of intact tumor cells.\nIn this example, the anti-tumor activity of de-ethylflavopereirine was compared with the activity of IFL (a combination of irinotecan, fluorouracil, and leucovorin). IFL has been routinely used in the treatment of colorectal cancer, but is associated with significant toxicity. The toxicity is so severe that some have encapsulated irinotecan in liposomes to reduce negative side effects.\nA comparison of the direct impact of de-ethylflavopereirine and IFL on tumors is depicted in FIGS. 32 and 33. Terminal deoxynucleotidyl transferase dUTP nick-end labeling (TUNEL) is a method for detecting DNA fragmentation by labeling the 3′-hydroxyl termini in the double-strand DNA breaks generated during apoptosis. Tumor sections from the two groups and an untreated control group were immunostained by the TUNEL method to specifically identify cells undergoing apoptosis."}, "[6]": {"system": "PANC-1 pancreatic cancer cells", "assay": "Anchorage independent colony formation in soft agar", "format": "cell-based", "conditions": "10 μM or 15 μM, 20 days; listed as De-ethylflavopereirine", "excerpt": "FIG. 13. Colony formation in soft agar of PANC-1 pancreatic cancer cells with or without de-ethylflavopereirine treatment.\nAnchorage independent colony formation assay in soft agar was used to test long-term survival (20 days) of tumorigenic pancreatic cancer cells after exposure to de-ethylflavopereirine. PANC-1 cells formed colonies at the rate of 12% when untreated. […] No tumorigenic cancer cells survived after exposure to compound 13-9-1 (FIG. 13)."}, "[7]": {"system": "two human breast cancer cell lines", "assay": "Proliferation of breast cancer cell lines", "format": "cell-based", "description": "as §2"}, "[8]": {"system": "OVCAR-5, SHIN-3, OVCAR-8", "assay": "MTT cell viability, ovarian cancer cell lines", "format": "cell-based, human", "conditions": "48 hr", "description": "FIG. 7. Dose-response curves for cell viability of human ovarian cancer cell lines OVCAR-5 (triangles), SHIN-3 (squares), and OVCAR-8 (lozenges) exposed to de-ethylflavopereirine. Cells were cultured in the presence of increasing concentrations of the compound for 48 hr and cell viability was determined by MTT assay. MRC-5 (crosses), an immortalized, normal human […] cell line, was used as a control.\nas §1"}, "[9]": {"assay": "Toxicity in mice, intravenous administration", "format": "in vivo", "conditions": "20 mg/kg and 40 mg/kg", "description": "At 20 mg/kg and 40 mg/kg doses, intravenous administration of compound 13-9-1 in mice was well-tolerated. The 20 mg/kg dose provides sufficient serum concentration for the compound to exert its anti-tumor effect.\nOral administration was chosen for the mouse experiments because administration is simplified by avoiding the need for tail vein injections."}, "[10]": {"conditions": "listed as de-ethylflavopereirine"}}, "note": "“Also recorded” adds a separate entry of the source."}
{"smiles": "c1ccc2c(c1)[nH]c1c2cc[n+]2ccccc12", "note": "[Compound 13-9-1, 12H-indolo[2,3-a]quinolizin-5-ium]", "values": [{"measurement": "secondary spheroid formation", "setting": "[1]; 2.5 μM", "value": "significant inhibition"}, {"measurement": "primary spheroid formation", "setting": "[1]; 5 μM and 10 μM", "value": "significantly inhibited primary spheroid formation"}, {"measurement": "secondary spheroid formation", "setting": "[1]; 5 μM and 10 μM", "value": "completely inhibited"}, {"measurement": "cell viability", "setting": "[2]", "value": "dose-dependent decrease in cancer cell viability"}, {"measurement": "Growth Inhibition", "setting": "[3]", "value": "Yes"}, {"measurement": "IC50", "setting": "[3]; Homo sapiens, after any period of treatment, read-out: Minimum Dose (IC50) needed to decrease growth 50% or greater versus control", "value": 5, "unit": "µM"}, {"measurement": "Ly6G level / number of neutrophils in the pancreas", "setting": "[4]", "value": "not elevated"}, {"measurement": "injury score", "setting": "[4]", "value": "completely prevented injury"}, {"measurement": "pancreatic tissue damage (histology)", "setting": "[4]", "value": "prevented; also recorded: no tissue damage"}, {"measurement": "Ly6G level / number of neutrophils in the pancreas", "setting": "[4]; [10]", "value": "completely normal Ly6G level"}, {"measurement": "toxicity and deaths of tumor-bearing mice", "setting": "[5]", "value": "did not have toxic effects on the mice"}, {"measurement": "toxicity and deaths of tumor-bearing mice", "setting": "[5]; nude, 2.5 weeks", "value": "No animals treated with compound 13-9-1 died"}, {"measurement": "HT-29 tumor volume", "setting": "[5]; treated for two and a half weeks", "value": "reduced HT-29 tumor volumes"}, {"measurement": "TUNEL staining of tumor sections", "setting": "[5]", "value": "apoptosis in zones near the periphery of the tumors"}, {"measurement": "TUNEL staining of tumor sections", "setting": "[5]; [10]", "value": "cells on the periphery were undergoing apoptosis"}, {"measurement": "colony formation in soft agar", "setting": "[6]", "value": "completely inhibited formation of PANC-1 colonies; also recorded: completely inhibited colony formation"}, {"measurement": "IC50 compared with flavopereirine", "setting": "[7]", "value": "same IC50s"}, {"measurement": "cell viability", "setting": "[8]", "value": "dose-dependent decrease in cancer cell viability"}, {"measurement": "tolerability of intravenous administration", "setting": "[9]", "value": "well-tolerated"}]}
